Reference: article PMC10115881, “Disrupting the α-synuclein-ESCRT interaction with a peptide inhibitor mitigates neurodegeneration in preclinical models of Parkinson’s disease” (Nature Communications, 2023)

Tests used:
[1] = system: VPS4B-CHMP2B interaction; test: Co-immunoprecipitation: disruption of VPS4B-CHMP interaction; format: cell-based
Description: HEK293T cells were co-transfected with Flag-tagged target protein, HA-tagged source protein, and GFP-tagged peptide or GFP. Cells were lysed 48 h after transfections with radioimmune precipitation assay buffer (50 mM Tris-HCl pH 7.4, 1% Nonidet P-40, 150 mM NaCl, 1 mM EDTA, 10 mM Na3VO4, 10 mM sodium pyrophosphate, 25 mM NaF, 1× protease inhibitor mixture (Sigma)) for 30 min at 4 °C and co-immunoprecipitated with Flag beads (Clontech). The resulting immunocomplexes were analyzed by immunoblot using the appropriate antibodies. Protein samples were separated using 4–20% Mini-PROTEAN Tris-glycine gels (Bio-Rad) transferred to PVDF membranes and blocked in 5% milk containing PBS-Tween-20 (0.1%) for 1 h. PVDF membranes were then incubated with specified primary antibodies followed by incubation with horseradish peroxidase-conjugated secondary antibodies (anti-mouse HRP-linked, Cell Signaling, catalog #7076, 1:5000; anti-rabbit HRP-linked, Cell Signaling, catalog #7074, 1:5000) and detected using enhanced chemiluminescence (GE Healthcare). HA antibodies were obtained from Santa Cruz (catalog #7392, 1:2000), GFP antibodies were purchased from Abcam (catalog #ab290, 1:2000), and Flag antibodies were purchased from Sigma (catalog #A8592, 1:1000).

[2] = system: cathepsin B; test: Cathepsin B fluorescence in rat cortical neurons; format: cell-based; conditions: A53T a-syn
Description: Pregnant rats (E17) of the Sprague-Dawley strain were purchased from Envigo. Embryos were surgically removed from the mothers and cortices dissected in Hanks Balanced salt solution (Gibco). The meninges were removed, and cells were dissociated using a papain dissociation system (Worthington) before being resuspended in Neurobasal medium A supplemented with antibiotic-antimycotic solution (Gibco), L-glutamine substitute (GlutaMAX™; Gibco) and factor B27 (Gibco). […]
After fixation, cells were permeabilized with 0.2% Triton-X-100 for 15 min, washed three times with PBS and then incubated with blocking solution (1% BSA, 22.52 mg/mL glycine, 0.1% Tween-20 in PBS or 0.4% saponin, 1% BSA, and 5% goat or donkey serum in PBS) for 1 h. […] Following another three washes with PBS, nuclei were counterstained with DAPI (ThermoFisher) and then coverslips were mounted on slides using Dako fluorescence mounting medium (Agilent) and sealed using clear nail varnish.
Confocal images of primary cortical neurons, iPSC-derived dopaminergic neurons, and LAMP1 staining within the SN were processed using Imaris software (Oxford instruments). […] Mean pixel intensity per GFP^+ cell (for experiments using GFP-tagged peptides) or RFP^+ cell (for experiments using RFP-tagged peptides) was calculated for a-syn or LAMP1 signal using the software’s surfaces module. […]

[3] = system: A53T a-syn or EV rats; test: Striatal catecholamines by HPLC; format: in vivo, rat; conditions: A53T high titer
Description: Animals were secured in a stereotactic frame under isoflurane/oxygen anesthesia and ketoprofen (5 mg/kg) analgesia. The surgical site was shaved and sterilized with iodine/betadine prior to making a 2 cm incision along the midline. The scalp was exposed and a unilateral injection targeting the SN was performed at coordinates AP −5.2 mm, ML −2 mm and DV −7.5 mm with respect to the bregma as a point of reference. For each animal, a total volume of 2 μl of virus was injected at a rate of 0.5 μl/min using a microinjection pump and 10 μl Hamilton syringe with a 26-gauge needle. For A53T groups, 1 μl (low dose) or 1.34 μl (high dose) of AAV1/2-A53T a-syn (5.1 × 10^12 genomic particles/ml), 0.14 μl of AAV1/2-PDpep1.3-GFP or Scramble1.3-GFP (5.1 × 10^12 genomic particles/ml) and 0.86 μl or 0.52 μl of sterile PBS was injected; for EV groups, 1 μl (low dose) or 1.34 μl (high dose) of AAV1/2-EV (5.1 × 10^12 genomic particles/ml) replaced AAV1/2-A53T. […]
HPLC was performed as described. […] Catecholamines were determined from the supernatant. Values of catecholamines are expressed as ng analyte/mg total protein.

With DEEIERQLKALG [PDpep1.3] the “Effect on VPS4B-CHMP2B interaction” value [1] was “inhibits the CHMP2B-VPS4 interaction”, the “Effect on cathepsin B” value [2] was “reduced to control levels” and the “Striatal dopamine, DOPAC and HVA” value [3] was “restored compared with the Scramble1.3 condition”.
